Patent US10441630B2, “Topical formulations and uses thereof” (OCULAR TECHNOLOGIES SARL, priority 2012, dated 2019)

Tests used:
[1] = Ocular tissue distribution of compound 1001 and RX-10008 by LC-MS/MS; type: in vivo, rabbit
Procedure: A study was conducted in rabbits to test the tolerance and ocular tissue distribution of two nanomicellar formulations of compound 1001 (RX10045) against matching placebos (Table 7a and 7b) and balanced saline solution (BSS). Healthy New Zealand female white rabbits (2-3 kg) were used for this study. One drop (approximately 35 μL) of study drug was applied o.d. 4×/day at two hour intervals for 5 days. One drop of BSS was applied to the contralateral eye.
Selected ocular fluids/tissues (aqueous humor, vitreous humor, conjunctiva, cornea, iris-ciliary body, lens, retina/choroid, and sclera) collected from two rabbits each in the RX-10045 (0.15% in HCO-60, 0.1% in HCO-40) treatment groups, and from one rabbit in each of the matching placebo groups, were assayed for compound 1001 and another resolvin by liquid chromatography-tandem mass spectrometry (LC-MS/MS). Warfarin-d5 and 5-HDA were used as internal standards for the analysis of RX-10045 and its active metabolite, RX-10008, respectively, in aqueous humor and vitreous humor. For the other ocular tissues (solid tissues), warfarin-d5 and phenyl acetic acid-d5 (PAA-d5) were used as the internal standards for compound 1001 and RX-10008, respectively. The analytical range for the solid tissues were 0.125-100 ng. The results of the solid tissue analyses were converted to ng/g by correcting for the amount of tissue analyzed.

[2] = Mixed nanomicellar size and polydispersity index (Zetasizer) of compound 1001 MNF; type: physicochemical; details: HCO-60 4 wt %, Octoxynol-40 0.01 wt %
Procedure: The formulation size and polydispersity index were determined with Zetasizer, Malvern Instruments, NJ. In brief, approximately 1 ml of each formulation was transferred to a cuvette and placed in the instrument. A laser beam of light was used to determine the mixed nanomicellar size.
Mixed nanomicellar formulation encapsulating compound 1001 was prepared by solvent evaporation method in two steps: 1) Preparation of basic formulation and 2) rehydration. In step one, compound 1001, HCO-60 and octoxynol-40 were dissolved separately in 0.3 mL of ethyl acetate. These three solutions were mixed together in 15-mL centrifuge tube. The resultant mixture was vortexed to obtain a homogenous solution. Ethyl acetate solvent was removed with speed vacuum to obtain a solid thin film. The residue was kept overnight under high vacuum at room temperature to remove residual organic solvent. In step two, the resultant thin film was hydrated with 1 mL of double distilled deionized water by vortexing the solution. The rehydrated formulation was suspended in 2× phosphate buffer solution, (pH 6.5). It was filtered through 0.2 μm nylon filter membrane to remove the unentrapped drug aggregates and other foreign particulates. The entrapment of compound 1001 was determined by RP-HPLC following disruption of the micelles and solubilization of 1001 in the diluent (2-propanol) as described below
Weight percent of drug loaded into MNF was determined following the method for entrapment efficiency. Size and polydispersity index of the formulations was determined with Malvern zetasizer as described above. The formulations appear clear and have small size and narrow size distribution.

[3] = Physical appearance, melt method, HCO-40 and compound 1001, at 25° C. and 4° C.; type: physicochemical; details: 1001 4 wt %; for Allow to reach room temperature (25° C.): brought back from 4° C.; for Mixture physical appearance at room temperature (4° C.): placed at 4° C.; for Resuspend in water: water at 40° C.
Procedure: The preparation of MNF encapsulating compound 1001 (neat oil) can be divided into two steps. As an example for the development of 3.0 wt % HCO-40 or HCO-60 MNF encapsulating 0.4% compound 1001 is described below. […] To this melt polymer compound 1001 (˜20 mg), thermostated at 40° C., was added and mixed for homogenous distribution. […] (in refrigerator).
This aqueous solution was allowed to reach room temperature, under natural conditions. The pH of the solution was adjusted to 5.5 and the volume was made up with 2× phosphate buffer saline (pH 5.5) containing octoxynol-40 (0.01 wt %) and PVP-K-90 (1.2 wt %). The formulation was filtered through 0.2 μm nylon filter to remove any foreign material and obtain a clear homogenous aqueous RX-1001 formulation.
The results obtained for physical appearance of the mixture, different phases, at different temperatures and appearance of final formulation are summarized in Tables 3a-3c.

[4] = rabbits, RX-10045 formulations 4×/day for 5 days
[5] = 1001 initially added 0.035 wt %
[6] = 1001 initially added 0.070 wt %
[7] = 1001 initially added 0.095 wt %
[8] = 1001 initially added 0.120 wt %
[9] = 1001 initially added 0.250 wt %
[10] = 1001 initially added 0.300 wt %
[11] = 1001 initially added 0.400 wt %

- hydrolysis to active metabolite RX-10008 ([1]; rabbit ocular tissues): rapidly hydrolyzed
- concentrations of the compound 1001 ester prodrug in the sclera and conjunctiva [1, 4]: sporadic, relatively low
- Final formulation ([3]; HCO-40 0.5 wt %): Emulsion
- Mixture physical appearance at room temperature (25° C.) ([3]; HCO-40 0.5 wt %): Viscous yellow
- Allow to reach room temperature (25° C.) ([3]; HCO-40 0.5 wt %): Viscous liquid
- Mixture physical appearance at room temperature (4° C.) ([3]; HCO-40 0.5 wt %): Viscous liquid
- Resuspend in water ([3]; HCO-40 0.5 wt %): Emulsion
- Final formulation ([3]; HCO-40 0.75 wt %): Emulsion
- Mixture physical appearance at room temperature (25° C.) ([3]; HCO-40 0.75 wt %): Viscous yellow
- Allow to reach room temperature (25° C.) ([3]; HCO-40 0.75 wt %): Viscous liquid
- Mixture physical appearance at room temperature (4° C.) ([3]; HCO-40 0.75 wt %): Viscous liquid
- Resuspend in water ([3]; HCO-40 0.75 wt %): Emulsion
- Final formulation ([3]; HCO-40 1.0 wt %): Emulsion
- Mixture physical appearance at room temperature (25° C.) ([3]; HCO-40 1.0 wt %): Viscous yellow
- Allow to reach room temperature (25° C.) ([3]; HCO-40 1.0 wt %): Viscous liquid
- Mixture physical appearance at room temperature (4° C.) ([3]; HCO-40 1.0 wt %): Viscous liquid
- Resuspend in water ([3]; HCO-40 1.0 wt %): Emulsion
- Final formulation ([3]; HCO-40 1.25 wt %): Emulsion
- Mixture physical appearance at room temperature (25° C.) ([3]; HCO-40 1.25 wt %): Viscous yellow
- Allow to reach room temperature (25° C.) ([3]; HCO-40 1.25 wt %): Viscous liquid
- Mixture physical appearance at room temperature (4° C.) ([3]; HCO-40 1.25 wt %): Viscous liquid
- Resuspend in water ([3]; HCO-40 1.25 wt %): Emulsion
- Final formulation ([3]; HCO-40 1.5 wt %): Emulsion
- Mixture physical appearance at room temperature (25° C.) ([3]; HCO-40 1.5 wt %): Viscous yellow
- Allow to reach room temperature (25° C.) ([3]; HCO-40 1.5 wt %): Viscous liquid
- Mixture physical appearance at room temperature (4° C.) ([3]; HCO-40 1.5 wt %): Yellow waxy
- Resuspend in water ([3]; HCO-40 1.5 wt %): Emulsion
- Final formulation ([3]; HCO-40 1.75 wt %): Emulsion
- Mixture physical appearance at room temperature (25° C.) ([3]; HCO-40 1.75 wt %): Viscous yellow
- Allow to reach room temperature (25° C.) ([3]; HCO-40 1.75 wt %): Viscous liquid
- Mixture physical appearance at room temperature (4° C.) ([3]; HCO-40 1.75 wt %): Yellow waxy
- Resuspend in water ([3]; HCO-40 1.75 wt %): Emulsion
- Final formulation ([3]; HCO-40 2.0 wt %): Emulsion
- Mixture physical appearance at room temperature (25° C.) ([3]; HCO-40 2.0 wt %): Viscous yellow
- Allow to reach room temperature (25° C.) ([3]; HCO-40 2.0 wt %): Viscous liquid
- Mixture physical appearance at room temperature (4° C.) ([3]; HCO-40 2.0 wt %): Yellow waxy
- Resuspend in water ([3]; HCO-40 2.0 wt %): Emulsion
- Final formulation ([3]; HCO-40 2.25 wt %): Emulsion
- Mixture physical appearance at room temperature (25° C.) ([3]; HCO-40 2.25 wt %): Viscous yellow
- Allow to reach room temperature (25° C.) ([3]; HCO-40 2.25 wt %): Viscous liquid
- Mixture physical appearance at room temperature (4° C.) ([3]; HCO-40 2.25 wt %): Yellow waxy
- Resuspend in water ([3]; HCO-40 2.25 wt %): Emulsion
- Final formulation ([3]; HCO-40 2.5 wt %): Yellow color
- Mixture physical appearance at room temperature (25° C.) ([3]; HCO-40 2.5 wt %): Viscous yellow
- Allow to reach room temperature (25° C.) ([3]; HCO-40 2.5 wt %): Viscous liquid
- Mixture physical appearance at room temperature (4° C.) ([3]; HCO-40 2.5 wt %): Yellow waxy
- Resuspend in water ([3]; HCO-40 2.5 wt %): Yellow
- Final formulation ([3]; HCO-40 2.75 wt %): Very pale yellow
- Mixture physical appearance at room temperature (25° C.) ([3]; HCO-40 2.75 wt %): Viscous yellow
- Allow to reach room temperature (25° C.) ([3]; HCO-40 2.75 wt %): Viscous liquid
- Mixture physical appearance at room temperature (4° C.) ([3]; HCO-40 2.75 wt %): Pale yellow waxy
- Resuspend in water ([3]; HCO-40 2.75 wt %): Pale yellow
- Final formulation ([3]; HCO-40 3.0 wt %): Clear solution
- Mixture physical appearance at room temperature (25° C.) ([3]; HCO-40 3.0 wt %): Viscous yellow
- Allow to reach room temperature (25° C.) ([3]; HCO-40 3.0 wt %): Viscous liquid
- Mixture physical appearance at room temperature (4° C.) ([3]; HCO-40 3.0 wt %): Pale yellow solid
- Resuspend in water ([3]; HCO-40 3.0 wt %): Clear
- Final formulation ([3]; HCO-40 4.0 wt %): Clear solution
- Mixture physical appearance at room temperature (25° C.) ([3]; HCO-40 4.0 wt %): Viscous yellow
- Allow to reach room temperature (25° C.) ([3]; HCO-40 4.0 wt %): Pale yellow
- Mixture physical appearance at room temperature (4° C.) ([3]; HCO-40 4.0 wt %): Pale yellow waxy
- Resuspend in water ([3]; HCO-40 4.0 wt %): Clear
SMILES: C#CC[C@@H](O)/C=C/C=C/C#C[C@@H](O)CCCC(=O)OC(C)C [compound 1001]
- compound 1001 in the majority of ocular tissues [1, 4]: either not detected or was below the quantitation limit
- Mixed nanomicellar size (nm) [2, 5]: 24.90 nm
- Polydispersity Index [2, 5]: 0.442
- Mixed nanomicellar size (nm) [2, 6]: 25.01 nm
- Polydispersity Index [2, 6]: 0.414
- Mixed nanomicellar size (nm) [2, 7]: 24.79 nm
- Polydispersity Index [2, 7]: 0.415
- Mixed nanomicellar size (nm) [2, 8]: 18.28 nm
- Polydispersity Index [2, 8]: 0.320
- Mixed nanomicellar size (nm) [2, 9]: 18.37 nm
- Polydispersity Index [2, 9]: 0.331
- Mixed nanomicellar size (nm) [2, 10]: 18.29 nm
- Polydispersity Index [2, 10]: 0.345
- Mixed nanomicellar size (nm) [2, 11]: 18.2 nm
- Polydispersity Index [2, 11]: 0.333
